Measured values taken from patent publication US20220296628A1, “RNA COMBINATIONS AND COMPOSITIONS WITH DECREASED IMMUNOSTIMULATORY PROPERTIES” (CureVac AG, priority 2019, published 2022).

Legend:
human PBMCs = assay: PBMC co-transfection of PpLuc mRNA and antagonists (Table 6), luciferase activity in cell lysate; type: cell-based; settings: 24 hours post transfection, DOTAP, antagonist 20% weight, compared to PpLuc mRNA without admixture (FIG. 5B)
Experimental: The preparation of human PBMCs was performed according to example 2.1. For transfection experiments 2×10^5 human PBMCs per well were seeded into each well of a 96-well plate in X-Vivo 15 medium (Lonza). For preparation of DOTAP (vehicle) complexes containing both the antagonist (either 2-O-methylated oligonucleotide variants, RNA oligonucleotides, DNA oligonucleotides or small molecules) as well as PpLuc mRNA (SEQ ID NO: 82, same RNA design as shown in table 2), the antagonist was first added to PpLuc mRNA at a weight percentage of 20% (1:5 mRNA: oligo/small molecule). The molar ratio of PpLuc mRNA to antagonist was thus 1:45 (MW (Oligonucleotide)=2907 g/mol, MW (PpLuc mRNA)=652377 g/mol). DOTAP complexes containing PpLuc mRNA and antagonist were formed at a ratio of 5 μl of DOTAP per 1 μg of mRNA and 100 ng were transfected. […] To quantify background stimulation, PBMC were incubated either with DOTAP alone (“vehicle”) or RPMI (“medium”) only. […] Expression analysis was performed by measuring the luciferase activity, which is measured as relative light units (RLU) in a BioTek SynergyHT plate reader. PpLuc activity is measured at 5 seconds measuring time using 50 μl of lysate and 200 μl of luciferin buffer (75 μM luciferin, 25 mM Glycylglycin, pH 7.8 (NaOH), 15 mM MgSO4, 2 mM ATP).

[1] = test system: human peripheral blood mononuclear cells (PBMCs); assay: PBMC stimulation: DOTAP co-transfection of capped PpLuc mRNA with oligonucleotide, cytokines by CBA; type: cell-based; settings: DOTAP co-transfection with capped PpLuc mRNA 1 μg/ml, oligonucleotide 0.25 μg/ml (25% weight), supernatant 24 hours, compared to PpLuc mRNA only (FIG. 1B)
Experimental: Human peripheral blood mononuclear cells (PBMCs) were isolated from heparinized blood of healthy volunteers by standard Ficoll-Hypaque density gradient centrifugation (Ficoll 1.078 g/ml). PBMCs were re-suspended in RPMI 1640 supplemented with 10% heat-inactivated FCS. After counting, cells are re-suspended at 50 million cells per ml in fetal calf serum, 10% DMSO, and frozen. Before usage, the cells are thawed.
For transfection experiments, 2×10^5 human PBMCs per well were seeded into each well of a 96-well plate in X-Vivo 15 medium (Lonza). For preparation of DOTAP complexes containing both immunostimulatory non-coding RNA and a 2′-O-methylated oligonucleotide (SEQ ID NO: 85), the oligonucleotide was first added to immunostimulatory non-coding RNA at a weight percentage of 25%. For preparation of DOTAP complexes containing both PpLuc mRNA and a 2′-O-methylated oligonucleotide, the oligonucleotide was first added to PpLuc mRNA at a weight percentage of 25%. The molar ratio of PpLuc mRNA to oligonucleotide was thus […] (MW (Oligonucleotide)=2907 g/mol, MW (PpLuc mRNA)=652377 g/mol). DOTAP complexes containing either immunostimulatory non-coding RNA or PpLuc mRNA without or with oligonucleotide were formed at a ratio of 3 μl of DOTAP per 1 μg of RNAdjuvant or 1 μg of mRNA. […] To quantify background stimulation, PBMC were incubated either with DOTAP alone (“vehicle”) or medium only. […]
In supernatants collected from PBMC stimulated without or with 2-O-methylated oligonucleotide, the concentrations of IFN-α, IFN-γ, TNF, were measured by Cytometric Bead Array (CBA) according to the manufacturer's instructions (BD Biosciences) using the following kits: Human Soluble Protein Master Buffer Kit (catalog no. 558264), Assay Diluent (catalog no. 560104), Human IFN-α Flex Set (catalog no. 560379), Human IFN-γ Flex Set (catalog no. 558269), Human TNF Flex Set (catalog no. 560112); all kits from BD Biosciences. The data was analyzed using the FCAP Array v3.0 software (BD Biosciences).

mice (strain 129SV) = assay: PpLuc expression in liver lysates after i.v. injection of LNP-formulated PpLuc mRNA with or without oligonucleotide; type: in vivo, mouse; settings: 24 hours post i.v. injection, 10 μg or 30 μg mRNA (either dose), compared to PpLuc mRNA without oligonucleotide (FIG. 3)
Experimental: For preparation of Lipid nanoparticles (LNP) containing both PpLuc mRNA and 2-O-methylated oligonucleotide, first the 2′-O-methylated oligonucleotide was added to PpLuc mRNA at a weight percentage of either 20% or 6.7% (see Table 3). LNP containing PpLuc mRNA either with or without admixture of 2-O-methylated oligonucleotide were prepared using cationic lipid, cholesterol, PEG-lipid and a neutral lipid. The mRNA was diluted to 1 g/L in citrate buffer, pH 4. The ethanolic lipid solution was mixed with the aqueous RNA solution at a ratio of 1:3 (vol/vol) using a Nanoassemblr (PrecisionNanoSystems). The ethanol was then removed and the buffer replaced by 10 mM HEPES, pH 7.4 comprising 9% Sucrose by dialysis. Finally, the LNP-formulated RNA was adjusted to 0.2 g/L.
For in vivo experiments, 8 weeks old female mice (around 25 g, strain 129SV) were injected with the various LNP formulations (see tables 4 and 5). 4 animals were used per group. […]
To prepare tissue lysates, first a steal bead was added to each liver. […] Plates were introduced into a plate reader (Berthold Technologies TriStar2 LB 942) and 50 μl per well of Beetle-Juice (PJK GmbH) containing luciferin as substrate for firefly luciferase was injected. Luciferase activity was quantified as relative light units (RLU). […]

“5′-GAG CGmG CCA-3′ (GAGCNGCCA; 2'-O-methyl guanosine at position 5; 9mer oligonucleotide; modified_base (5)..(5) n can be any nucleotide, wherein the nucleotide is 2-O-methylated, preferably a 2-O-methylated guanosine) [Gm18, 9-mer 2′-O-methylated RNA oligonucleotide; position 5 is 2′-O-methylated guanosine (Gm); antagonist of TLR7 and 8]” was tested, and the “expression of PpLuc in PBMCs” value (human PBMCs) was “increases the expression”, the “secretion of cytokine INF-a” value [1] was “reduced secretion” and the “secretion of cytokine INF-y” value [1] was “reduced secretion”. The “secretion of cytokine TNF” value [1] was “reduced secretion” and the “expression of PpLuc in liver lysates (luciferase activity)” value (mice (strain 129SV)) was “increases the expression”.
